Data published in patent US20050260629A1, “Differential drug sensitivity” (Ludwig Institute for Cancer Research, priority 2004, published 2005).
Entries after “also recorded” stand apart in the source; their conditions may differ.

Key:
Format in all cases: cell-based, Human
[1] = system: p21 promoter; experiment: p21Luciferase stable U2OS cell line
Description: (§1) Cells were co-transfected with 1 μg of the plasmid of interest and 4 μg of pCDNA3, which contains the resistance gene against neomycin for 6 hours. They were washed once with PBS and cultured in medium supplemented with neomycin. Twenty four hours later they were split and plated at different dilutions (from 1:50 to 1:200) in medium containing neomycin. The medium was changed every three days for two weeks until colonies formed. Colonies were picked and sub-cultured into a 24-well plate. After proliferation of each colony, cells were characterized either by luciferase assays or by western blotting according to the cell line.
(§2) Twenty four hours after transfection, the cells were lysed in Reporter Lysis buffer supplied by Promega and assayed using the Luciferase assay kit (Promega), measuring luciferase activity with the Autolumat Plus (Berthold technologies). The fold activation of a particular reporter was determined by the activity of the transfected plasmid divided by the activity of vector alone. The fold increase of activity in response to drug treatment was obtained by the activity in the presence of drug divided by the activity of the untreated sample.
(§3) Pig3Luciferase, Pig3-delFLuciferase (similar to the Pig3 promoter but without the p53 binding site), p21Luciferase, MDM2Luciferase reporters were used to generate four cell lines in U2OS cells.

[2] = system: ASPP2 promoter; experiment: ASPP2 promoter luciferase stable U2OS cell line
Description: as §1, §2
(§4) ASPP might respond to drugs in many ways in cells. To start investigating this, stable cell lines expressing luciferase under the control of the ASPP1 or ASPP2 promoters were created in U2OS cells. For each cell line, two clones were tested with the six drugs used previously. […] At the same time, these cell lines were used to titrate drugs.

[3] = system: proapoptotic promoter Pig3; experiment: Pig3Luciferase reporter transactivation, transient transfection in MCF7 cells; conditions: treated 24 hours
Description: (§5) Adherent cells were grown to a confluence of 70-80% in fresh medium. Cells were plated 24 hours prior to the transfection procedure. The medium on the dishes was replaced with 3 ml of fresh medium 15-30 minutes before the transfection. 2×HBS buffer (280 mM NaCl, 10 mM KCL, 1.4 mM Na2HPO4.2H2O, 12 mM glucose, 39 mM HEPES, adjusted to a pH 6.9-7.3) was diluted in sterile water to a concentration of 1× in a final volume of 300 μl. The required amount of DNA was added using sterile Gilson tips and mixed thoroughly. To form the precipitate, 12.5 μl of 2.5 M CaCl2 was added to the transfection mix and left at room temperature for 12-15 minutes. Six hours later dishes were washed with medium without serum once before adding 3 ml of fresh medium supplemented with 10% serum until further analysis of cells.
as §2, with “sample. […]” for “sample.”

[4] = system: ASPP1 promoter; experiment: ASPP1 promoter luciferase stable U2OS cell line
Description: as §1, §2, §4

[5] = system: Pig3 promoter; experiment: Pig3Luciferase stable U2OS cell line
Description: as §1, §2, §3

[6] = system: MDM2 promoter; experiment: MDM2Luciferase stable U2OS cell line
Description: as §1, §2, §3

[7] = system: proapoptotic promoter Pig3; experiment: Pig3Luciferase reporter transactivation, transient transfection in U2OS cells; conditions: treated 24 hours
Description: as §5, §2
Some of the drugs commonly used in cancer therapy are known to stimulate p53 transactivation activity. To test their effect on a proapoptotic promoter specifically transactivated by p53, U2OS and MCF7 cells (both wild type p53) were transiently transfected with the proapoptotic reporter Pig3Luciferase and then treated for 24 hours with eight different compounds (FIGS. 1A and 1B).
Si—RNA cloned into pSuper plasmid (Brummelkamp et al., Science. 296(5567):550-3, 2002) was transiently transfected with the Pig3 reporter into U2OS cells treated with doxorubicin or cisplatin (FIG. 3A).

[8] = system: deleted Pig3 promoter; experiment: Pig3-delFLuciferase stable U2OS cell line (no p53 binding site)
Description: as §1, §2, §3

[9] = drug titration, regardless of the concentration

Row | SMILES | p21 promoter activity [1] | ASPP2 promoter activity ([2]; stable U2OS, clone 4) | ability of p53 to transactivate the Pig3 promoter [3] | ASPP1Luciferase reporter activity [4, 9] | Pig3-Luciferase activity [5] | MDM2 promoter activity [6] | Pig3 promoter activity went up by [7] | ability of p53 to transactivate the Pig3 promoter [7] | further results
1 | COc1cccc2c1C(=O)c1c(O)c3c(c(O)c1C2=O)C[C@@](O)(C(C)=O)C[C@@H]3O[C@H]1C[C@H](N)[C@H](O)[C@H](C)O1 [daunorubicin] | not p21 or MDM2 | stimulated | strongly increased | little effect | specifically stimulated | not p21 or MDM2 | 34.7 fold | strongly increased | ASPP2 promoter activity increase ([2]; clone 4, titration, at 150 ng/ml): 4 fold
2 | O=c1[nH]cc(F)c(=O)[nH]1 [5-Fluorouracil] | – | – | – | – | – | – | – | able to induce such induction | ASPP2 promoter activation ([2]; clone 4, titration, at 40 μg/ml): 3 fold; concentration inducing the maximum ASPP1Luciferase reporter activity ([4]; drug titration): 40 µg/mL; ASPP1 promoter activity ([4]; stable U2OS, two clones, after 24 hours, listed as 5-fluorouracil): activates; Pig3 promoter activity induced by [5]: three; effect on the MDM2 promoter [6]: 7 fold
3 | N.N.[Cl][Pt][Cl] [cisplatin] | did not affect | – | – | little effect | did not affect | did not affect | 2.9 fold | did not have the same efficiency as doxorubicin | ASPP2 promoter activity ([2]; clone 4, drug titration): no effect
4 | COc1cccc2c1C(=O)c1c(O)c3c(c(O)c1C2=O)C[C@@](O)(C(=O)CO)C[C@@H]3O[C@H]1C[C@H](N)[C@H](O)[C@H](C)O1 [doxorubicin] | not p21 or MDM2 | stimulated | strongly increased | – | respond; also recorded: specifically stimulated | not p21 or MDM2 | – | strongly increased | ASPP2 promoter activity ([2]; FIGS. 4A and 4B (both clones)): activates; ASPP2 promoter activity, increase over the control ([2]; clone 4, titration, at 2 μM (highest effect)): 10 fold; ASPP2 promoter activity ([2]; stable U2OS, clone 3): had an effect; ASPP1Luciferase reporter activity ([4]; drug titration, at 2 μM): 2 fold; toxicity in ASPP1Luciferase cells ([4]; drug titration, concentration reached 3 μM): toxic; activity of the deleted Pig3 promoter [8]: did not affect
5 | CO[C@@]12[C@H](COC(N)=O)C3=C(C(=O)C(C)=C(N)C3=O)N1C[C@@H]1N[C@@H]12 [mitomycin C] | did not affect | – | – | – | did not affect | did not affect | – | – | –
6 | COc1cc([C@@H]2c3cc4c(cc3[C@@H](O[C@@H]3O[C@@H]5CO[C@@H](C)O[C@H]5[C@H](O)[C@H]3O)[C@H]3COC(=O)[C@H]23)OCO4)cc(OC)c1O [etoposide] | did not affect | – | – | – | did not affect | did not affect | – | – | –
